Results as given in patent US8652823B2, “Strain for butanol production with increased membrane unsaturated trans fatty acids” (Butamax(TM) Advanced Biofuels LLC, priority 2008, dated 2014).

Key:
Format in all cases: cell-based, Lactobacillus plantarum
[1] = test system: L. plantarum PN0512; experiment: Growth yield of fatty acid fed cultures in the presence of 1-butanol; conditions: for OD600 (growth yield): overnight growth at 30° C., average of biological replicates
Experimental: (§1) Growth medium was semi-synthetic LAB medium, pH7, with bovine serum albumin (BSA) used as a carrier. […] The composition of this medium is as follows:
(§2) All medium ingredients were purchased from Sigma Chemical Company (St. Louis, Mo.) except yeast extract and casamino acids, which were purchased from Beckton, Dickinson and Co (Sparks, Md.). Free fatty acids, added to a final concentration of […] from 1% ethanol stock solutions (stored at −20° C.), were purchased from Sigma Chemical Company (St Louis, Mo.), Isobutanol, 1-butanol, 2-butanol, and methyl ethyl ketone (MEK) were purchased from Sigma Chemical Company (St. Louis, Mo.).
(§3) A working stock of Lactobacillus plantarum PN0512 (ATCC # PTA-7727) was prepared to use as a consistent source of inoculum. Cultures were grown in MRS medium (Acumedia Manufacturers, Inc. Lansing, Mich.) at 30° C. overnight. Glycerol was added to a final concentration of 12.5% and aliquots were frozen at −80° C. One aliquot was thawed at room temperature and used to inoculate all tubes in an experiment and then discarded.
(§4) For growth yield experiments, 5 ml of medium with fatty acids and several concentrations of 1-butanol, isobutanol, 2-butanol, or MEK in 15 ml screw cap tubes was inoculated with 12.5 μl of the working stock giving an initial OD600 of 0.012. The caps were tightly sealed and incubated at 30° C. on a roller drum for 20 to 26 hours, at which time 1.0 ml was removed and OD600 was measured with a blank of medium amended with the fatty acid. All solvent concentrations are reported as % (w/v).
(§5) Cultures were prepared as described in General Methods.

[2] = test system: L. plantarum PN0512; experiment: Growth yield of fatty acid fed cultures in the presence of 2-butanol; conditions: for OD600 (growth yield): overnight growth at 30° C., average of biological replicates
Experimental: as §1, §2, §3, §4, §5

[3] = test system: L. plantarum PN0512; experiment: Growth yield of fatty acid fed cultures in the presence of MEK; conditions: for OD600 (growth yield): overnight growth at 30° C., average of biological replicates
Experimental: as §1, §2, §3, §4, §5

[4] = test system: L. plantarum PN0512; experiment: Growth yield of fatty acid fed cultures in the presence of isobutanol; conditions: for OD600 (growth yield): 20 hours at 30° C., average of two experiments
Experimental: as §1, §2, §3, §4
Growth in the presence of these fatty acids and various concentrations of isobutanol was tested. Cultures were prepared as described in General Methods.

SMILES | OD600 (growth yield) ([1]; 1-butanol 0 % (w/v)) | OD600 (growth yield) ([1]; 1-butanol 2.0 % (w/v)) | OD600 (growth yield) ([1]; 1-butanol 2.25 % (w/v)) | OD600 (growth yield) ([1]; 1-butanol 2.5 % (w/v)) | OD600 (growth yield) ([1]; 1-butanol 2.75 % (w/v)) | OD600 (growth yield) ([1]; 1-butanol 3.0 % (w/v)) | OD600 (growth yield) ([2]; 2-butanol 0 % w/v) | OD600 (growth yield) ([2]; 2-butanol 2.0 % w/v) | OD600 (growth yield) ([2]; 2-butanol 4.0 % w/v) | OD600 (growth yield) ([2]; 2-butanol 4.5 % w/v) | OD600 (growth yield) ([2]; 2-butanol 4.7 % w/v) | OD600 (growth yield) ([2]; 2-butanol 4.9 % w/v) | OD600 (growth yield) ([2]; 2-butanol 5.1 % w/v) | OD600 (growth yield) ([2]; 2-butanol 5.3 % w/v) | OD600 (growth yield) ([2]; 2-butanol 5.5 % w/v) | OD600 (growth yield) ([3]; MEK 0 % (w/v)) | OD600 (growth yield) ([3]; MEK 3.5 % (w/v)) | OD600 (growth yield) ([3]; MEK 4.0 % (w/v)) | OD600 (growth yield) ([3]; MEK 4.5 % (w/v)) | OD600 (growth yield) ([3]; MEK 5.0 % (w/v)) | further results
CCCCCCCC/C=C\CCCCCCCC(=O)O [oleic acid, reference compound] | 1.509 | 1.026 | 0.611 | 0.161 | 0.061 | 0.003 | 1.480 | 1.410 | 0.431 | 0.100 | 0.067 | 0.040 | 0.030 | 0.004 | 0.004 | 1.539 | 1.002 | 0.9446 | 0.942 | 0.6828 | OD600 (growth yield) ([2]; 2-butanol 3.0 % w/v): 1.130; OD600 (growth yield) ([3]; MEK 5.5 % (w/v)): 0.5004; OD600 (growth yield) ([4]; isobutanol 1.5 % w/v): 1.110; OD600 (growth yield) ([4]; isobutanol 2.0 % w/v): 1.130; OD600 (growth yield) ([4]; isobutanol 2.5 % w/v): 0.519; OD600 (growth yield) ([4]; isobutanol 2.7 % w/v): 0.387; OD600 (growth yield) ([4]; isobutanol 2.9 % w/v): 0.095; OD600 (growth yield) ([4]; isobutanol 3.1 % w/v): 0.063; OD600 (growth yield) ([4]; isobutanol 3.3 % w/v): 0.035; OD600 (growth yield) ([4]; isobutanol 3.5 % w/v): 0.015
CCCCCCCC/C=C/CCCCCCCC(=O)O [elaidic acid, (E)-octadec-9-enoic acid] | 1.508 | 1.039 | 1.003 | 0.559 | 0.095 | 0.009 | 1.490 | 1.430 | 1.030 | 0.400 | 0.186 | 0.088 | 0.038 | 0.030 | 0.008 | 1.548 | 1.0041 | 0.9105 | 0.8871 | 0.3235 | growth yield higher than in the oleic acid fed cultures ([1]; 2.5% w/v 1-butanol): greater than 3 fold; growth yield compared with the oleic acid fed cultures ([1]; concentrations greater than 2% 1-butanol): greater; tolerance to 2-butanol when compared to the oleic acid fed culture [2]: improved tolerance; growth yield higher than in the oleic acid fed cultures ([2]; 4.5% w/v 2-butanol): 4 fold; tolerance to MEK as compared with oleic acid fed cultures [3]: did not have improved tolerance to MEK; OD600 (growth yield) ([3]; MEK 5.5 % (w/v)): 0.1477; growth yield higher than in the oleic acid fed cultures ([4]; 2.5% w/v isobutanol): 78%; growth yield compared with the oleic acid fed cultures ([4]; concentrations greater than 2% isobutanol): greater; OD600 (growth yield) ([4]; isobutanol 1.5 % w/v): 1.145; OD600 (growth yield) ([4]; isobutanol 2.0 % w/v): 1.100; OD600 (growth yield) ([4]; isobutanol 2.5 % w/v): 0.922; OD600 (growth yield) ([4]; isobutanol 2.7 % w/v): 0.606; OD600 (growth yield) ([4]; isobutanol 2.9 % w/v): 0.281; OD600 (growth yield) ([4]; isobutanol 3.1 % w/v): 0.122; OD600 (growth yield) ([4]; isobutanol 3.3 % w/v): 0.072; OD600 (growth yield) ([4]; isobutanol 3.5 % w/v): 0.042
